Test results taken from patent US9775844B2, “Heterocyclic compounds and uses thereof” (Infinity Pharmaceuticals, Inc., priority 2014, dated 2017).
Read-outs that look alike come from different tables or passages of the source.

Assays:
human hepatocytes = test: Human hep viability; assay type: cell-based; conditions: Hepatocyte
[1] = Mouse pharmacokinetics, oral single and repeat dose; assay type: in vivo; conditions: female mice, 2, 7.5, 15 mg/kg PO
Experimental: Animals were weighed daily prior to dosing. […] On subsequent dosing days, the animals' condition was noted prior to dosing; the animals were observed within 4 hours of dosing, and at the end of the day.
Samples were collected at pre-dose 0.25, 0.5, 1, 2, 4, 6 and 24 h following the first dose on day 1 and pre-dose (trough), 0.25, 0.5, 1, 2, 4, 6 and 24 h following the final dose on day 3 Animals received a single oral dose daily for 3 consecutive days. Blood was collected by retro-orbital bleeding for all time points on day 1. All other blood sampling was collected by a cardiac puncture. Blood was collected into K2EDTA tubes and placed on wet ice. Within 15 min of collection, the sample was centrifuged at 10,000 rpm at 4° C. for 10 min in a bench top centrifuge and the plasma transferred to a new microcentrifuge tube.
A similar study was carried out using Compound 88. […] Below is a table that details the results for Compound 88: […]

[2] = Pharmacokinetics in rodent and non-rodent animal species; assay type: in vivo
Description: These properties indicate the compound's suitability for in vivo administration.

[3] = Expected oral half-life in humans (from animal data); conditions: human, based on rat, dog, monkey data
4T1 breast cancer [4] = test: Orthotopic 4T1 breast cancer model; assay type: in vivo; conditions: Compound BB and/or PDL-1 inhibition
[5] = Unbound concentrations in tumor and plasma, LLC model, 12 days daily oral administration; assay type: in vivo, mouse; conditions: Plasma, 12 days daily oral administration in NMP solution, read-out: Free Conc
Description: Below is a table of details:

[6] = Oral PK in the rat LPS studies (free plasma concentration); assay type: in vivo; conditions: plasma, read-out: Free Plasma Conc
Experimental: This study also includes assessment of the exposure to the compounds in plasma and lung tissues.
Ref C is budesonide p.o. The compound was administered p.o. and about 1 hour later, LPS was administered intra-tracheally and plasma was collected. After about 5 hours, plasma and bronchoalveolar lavage samples were collected.

PGP = PGP (Homo sapiens (Human), UniProt P08183); test: PGP efflux; assay type: in vitro ADME
Chain of PGP (P08183 whole entry, species assumed): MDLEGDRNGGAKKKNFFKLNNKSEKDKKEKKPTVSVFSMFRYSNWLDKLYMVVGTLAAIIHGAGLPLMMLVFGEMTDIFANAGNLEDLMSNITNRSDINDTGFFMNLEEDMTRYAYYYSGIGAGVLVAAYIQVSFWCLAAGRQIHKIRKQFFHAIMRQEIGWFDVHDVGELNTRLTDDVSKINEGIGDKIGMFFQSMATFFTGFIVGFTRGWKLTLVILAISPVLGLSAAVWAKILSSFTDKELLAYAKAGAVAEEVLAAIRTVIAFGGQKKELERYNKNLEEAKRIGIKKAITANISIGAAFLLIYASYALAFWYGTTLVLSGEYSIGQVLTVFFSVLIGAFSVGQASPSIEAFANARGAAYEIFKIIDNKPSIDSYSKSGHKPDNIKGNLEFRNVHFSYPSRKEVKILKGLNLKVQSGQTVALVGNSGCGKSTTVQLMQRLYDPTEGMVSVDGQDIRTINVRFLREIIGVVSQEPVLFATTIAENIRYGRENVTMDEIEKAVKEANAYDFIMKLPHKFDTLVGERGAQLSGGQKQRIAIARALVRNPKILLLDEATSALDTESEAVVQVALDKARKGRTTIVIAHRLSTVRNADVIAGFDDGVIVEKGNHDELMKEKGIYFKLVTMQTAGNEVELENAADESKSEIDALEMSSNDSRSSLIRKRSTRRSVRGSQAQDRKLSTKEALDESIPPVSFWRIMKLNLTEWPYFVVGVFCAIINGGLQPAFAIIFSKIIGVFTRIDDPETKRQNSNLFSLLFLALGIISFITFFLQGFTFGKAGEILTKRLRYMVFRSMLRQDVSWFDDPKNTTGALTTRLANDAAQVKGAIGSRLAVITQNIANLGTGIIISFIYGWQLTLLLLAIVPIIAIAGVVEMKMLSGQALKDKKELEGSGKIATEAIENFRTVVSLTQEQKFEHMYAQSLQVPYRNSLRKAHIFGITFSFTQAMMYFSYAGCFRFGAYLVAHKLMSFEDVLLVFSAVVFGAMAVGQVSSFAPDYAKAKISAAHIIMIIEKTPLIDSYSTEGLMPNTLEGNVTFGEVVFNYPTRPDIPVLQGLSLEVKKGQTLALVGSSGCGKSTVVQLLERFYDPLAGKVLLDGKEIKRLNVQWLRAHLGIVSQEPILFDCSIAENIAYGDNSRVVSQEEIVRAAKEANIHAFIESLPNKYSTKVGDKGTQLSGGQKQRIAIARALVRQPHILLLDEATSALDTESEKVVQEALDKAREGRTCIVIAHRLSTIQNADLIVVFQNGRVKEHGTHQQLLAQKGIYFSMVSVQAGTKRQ

[7] = test system: M2 macrophage markers VEGF and ARG-1; test: M2 macrophage marker expression with or without PDL-1 antibody (FIG. 42)
[8] = test system: collagen induced arthritis; test: Rat collagen induced arthritis (CIA) model; assay type: in vivo
4T1 = 4T1 breast cancer model
4T1 breast cancer [9] = test: Subcutaneous 4T1 breast cancer model; assay type: in vivo
tumor = test: Tumor growth, Compound BB alone and co-administered with 5-FU (FIG. 35); assay type: in vivo
[10] = Stability in simulated gastric fluid; assay type: physicochemical; conditions: 38°
Description: The phyiscochemical properties of Compound BB are drug-like, and suitable for use of the compound as a drug.

Oral exposure in the rat = assay type: in vivo
[11] = test system: differentiation of myeloid cells into M2 TAMs; test: Murine M2 TAM differentiation (ARG1 levels); assay type: cell-based, mouse; conditions: FIG. 22A/22B
Description: High ARG1 (Arginase-1) levels indicate that myeloid cells are differentiating into M2 macrophages, so lower ARG1 levels relative to a control indicate interference with differentiation into M2 macrophages. Expression of Arginase-1 depletes the tumor microenvironment of arginine, thereby promoting T cell death and NK cell inhibition. Schmid et. al., Proceedings: AACR 103rd Annual Meeting 2012, Cancer Research: Apr. 15, 2012; Volume 72, Issue 8, Supplement 1. […] M2 TAMs promote cancer cell survival (FIG. 23).
M2 macrophages can be produced as follows. Sacrifice mouse and collect femur and tibias Immerse the bones on a petri dish in 70% ethanol for 1-2 min, then remove the bones and let the ethanol dry off for 3-4 min. Cut off a very small portion of the end of the bones to make an easy access for needle insert. Using a 27 g needle filled will media containing DMEM+10% FBS+1% Pen/Strep (complete DMEM), expel the bone marrow from both ends of the bones into a 15 ml petri dish. Pipette the bone marrow to dissociate the bone marrow cells. Centrifuge and add 1× Red Cell lysis buffer to the pellet. Let RBC lyse for 2 min then add equal amount of complete DMEM and centrifuge. The bone marrow from one mouse can be divided into 2 petri dishes containing 7 ml of BMM media (DMEM+20% FBS+1% Pen/Strep+50 ng/ml M-CSF). […] The cells are ready for polarization on day 6. […]

## C[C@H](NC(=O)c1c(N)nn2cccnc12)c1cc2cccc(C#Cc3cnn(C)c3)c2c(=O)n1-c1ccccc1 [Compound BB]
Human hepatocytes
  IC50: 10 to 25 µM
[1]
  stability in serum (unbound plasma concentration time course): good stability in serum
[2]; in vivo
  clearance: low clearance
  half-life in vivo: long half-life
  volume of distribution: high volume of distribution
[2]; rodent and non-rodent animal species
  oral bioavailability: high oral bioavailability
[3]
  half-life: 10 to 13 h
4T1 breast cancer [4]
  total luciferase flux: reduced total luciferase flux
  tumor growth: reduced tumor growth
[5]; C57 Albino, mouse, 3 mg/kg, 2 h
  concentration at 2 h: 25.9 nM
[5]; C57 Albino, mouse, 7.5 mg/kg, 2 h
  concentration at 2 h: 99 nM
[5]; C57 Albino, mouse, 15 mg/kg, 2 h
  concentration at 2 h: 157 nM
[5]; 3 mg/kg, Trough
  concentration at 2 h: 0.75 nM
[5]; 7.5 mg/kg, Trough
  concentration at 2 h: 8.99 nM
[5]; 15 mg/kg, Trough
  concentration at 2 h: 8.39 nM
[6]; oral, p.o. 0.5 mg/kg, 1.5h (time of LPS challenge)
  concentration at 1.5 h: 2.1 nM
[6]; oral, p.o. 0.5 mg/kg, 5.5h (approximately 4 hours post LPS challenge)
  concentration at […]: 2.6 nM
[6]; po, p.o. 1.5 mg/kg, 1.5h
  concentration at 1.5 h: 5.2 nM
[6]; po, p.o. 1.5 mg/kg, 5.5h
  concentration at […]: 5.4 nM
[6]; po, p.o. 5 mg/kg, 1.5h
  concentration at 1.5 h: 22.6 nM
[6]; po, p.o. 5 mg/kg, 5.5h
  concentration at […]: 24.7 nM
PGP
  PGP efflux@ 10 uM: No
[7]
  M2 macrophage marker ARG-1: reduced
  M2 macrophage marker VEGF: reduced
[8]; 0.5 mg/kg
  bone resorption score reduction: 25%
  cartilage damage score reduction: 28%
  inflammation score reduction: 27%
  pannus score reduction: 28%
  periosteal bone formation score reduction: 52%
  periosteal bone widths reduction: 47%
[8]; 0.5 mg/kg, non-significant
  reduction in summed scores: 31%
  reduction of scored parameters: 27-52%
[8]; 1.5 mg/kg
  bone resorption score reduction: 44%
  cartilage damage score reduction: 45%
  inflammation score reduction: 36%
  pannus score reduction: 44%
  periosteal bone formation score reduction: 52%
  periosteal bone widths reduction: 50%
[8]; 1.5 mg/kg, significant
  reduction in summed scores: 42%
[8]; 5 mg/kg
  bone resorption score reduction: 65%
  cartilage damage score reduction: 59%
  inflammation score reduction: 57%
  pannus score reduction: 71%
  periosteal bone formation score reduction: 82%
  periosteal bone widths reduction: 82%
[8]; 5 mg/kg, significant
  reduction in summed scores: 64%
  reductions in all scores: 57-82%
[8]; day 9 to day 17, FIG. 1
  mean ankle diameter: therapeutic effects
4T1; 7.5 mg/kg PO once daily, FIG. 33A
  tumor growth, orthotopic 4T1 breast cancer model: reduced tumor growth
4T1; 7.5 mg/kg PO once daily, FIG. 33B
  total luciferase flux, orthotopic 4T1 breast cancer model: reduced total luciferase flux
4T1; Compound BB 15 mg/kg PO QD 2 weeks, 5-FU 50 mg/kg, docetaxel 33 mg/kg, paclitaxel 10 mg/kg IP
  tumor growth, 4T1 model, alone or with chemotherapy: reduction in tumor growth
4T1; single agent, FIG. 34
  anti-tumor activity, subcutaneous 4T1 breast cancer model: single agent activity
4T1; subcutaneous 4T1
  maintenance of anti-tumor effect after discontinuation of treatment: at least 6 days
4T1 breast cancer [9]
  single agent activity: demonstrated single agent activity
4T1 breast cancer [9]; co-administration with docetaxel, paclitaxel, or 5-FU
  tumor growth: achieved a further reduction in tumor growth
tumor; Compound BB alone
  tumor growth: achieves a reduction in tumor growth
tumor; co-administration of Compound BB and 5-FU
  tumor growth: achieves a further reduction
[10]
  stability in simulated gastric fluid: > 4 h
Oral exposure in the rat
  oral exposure: high
[11]
  M2 TAM differentiation (ARG1 levels): inhibited M2 TAM differentiation much more effectively than PI3K-δ inhibitor
